In ChEMBL document CHEMBL2021885, “Triphenylbutanamines: kinesin spindle protein inhibitors with in vivo antitumor activity” (J Med Chem, 2012):
Calls of active or inactive are those of the source. The calls are words filed in the database; no cut-off is given here.

Columns and labels:
[1] = biological target: T1, Kinesin heavy chain isoform 5A (Homo sapiens) (UniProt Q12840); assay: Inhibition of MT-stimulated Kif5a ATPase activity
T1 sequence (whole entry): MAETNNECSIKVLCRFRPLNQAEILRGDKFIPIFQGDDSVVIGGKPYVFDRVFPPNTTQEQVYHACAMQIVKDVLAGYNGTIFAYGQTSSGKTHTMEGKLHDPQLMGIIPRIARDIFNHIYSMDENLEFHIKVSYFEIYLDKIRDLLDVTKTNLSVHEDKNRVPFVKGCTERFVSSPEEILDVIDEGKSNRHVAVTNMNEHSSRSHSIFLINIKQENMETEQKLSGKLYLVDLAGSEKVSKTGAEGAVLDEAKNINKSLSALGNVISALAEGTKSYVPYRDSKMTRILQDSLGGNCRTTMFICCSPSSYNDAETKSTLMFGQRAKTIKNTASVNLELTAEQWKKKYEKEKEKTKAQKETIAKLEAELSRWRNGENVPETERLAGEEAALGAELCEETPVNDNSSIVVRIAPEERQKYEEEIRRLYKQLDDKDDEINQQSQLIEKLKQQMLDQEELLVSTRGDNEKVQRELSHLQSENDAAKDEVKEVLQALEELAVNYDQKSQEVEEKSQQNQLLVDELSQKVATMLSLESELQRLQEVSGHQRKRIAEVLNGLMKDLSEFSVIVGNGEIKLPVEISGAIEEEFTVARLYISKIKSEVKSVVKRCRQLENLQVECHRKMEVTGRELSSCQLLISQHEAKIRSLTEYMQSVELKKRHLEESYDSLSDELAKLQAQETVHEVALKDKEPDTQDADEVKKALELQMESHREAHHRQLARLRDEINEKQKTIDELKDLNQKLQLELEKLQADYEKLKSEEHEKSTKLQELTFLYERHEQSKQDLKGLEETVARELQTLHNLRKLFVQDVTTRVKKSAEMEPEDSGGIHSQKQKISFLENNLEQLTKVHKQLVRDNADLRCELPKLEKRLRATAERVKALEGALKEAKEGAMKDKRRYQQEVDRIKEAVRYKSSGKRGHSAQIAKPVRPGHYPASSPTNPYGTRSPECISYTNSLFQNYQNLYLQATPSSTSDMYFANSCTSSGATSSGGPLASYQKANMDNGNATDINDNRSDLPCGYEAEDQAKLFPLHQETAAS

[2] = Lipophilicity, Log P of the compound; type: physicochemical; conditions: octanol/water; read-out: logP

Cc1cccc(C(CCC(N)C(=O)O)(c2ccccc2)c2ccccc2)c1 (racemic)
inhibition [1]: inactive
logP [2]: 2.45
